Data from patent US20130197028A1, “nAChRalpha7 Agonists and nAChRalpha7 Antagonists for Treating Ulcerative Colitis (UC) and Crohn's Disease (CD)” (priority 2010, published 2013).
Entries after “also recorded” stand apart in the source; their conditions may differ. Like-named read-outs stand apart in the source and are kept apart here.

Columns and labels:
TNBS-induced colitis = assay type: in vivo, mice; conditions: for effect on CD-like colitis (overall statement): mouse IBD model, acute/chronic not specified; for disease activity (DAI), acute TNBS-colitis: mouse, in vivo
Text: C57BL/6. Mice were pretreated either with PBS (control), or nicotine, PNU (α7 agonist), or MLA drug by peritoneal injection once daily for five days. Mice were then induced to develop colitis for seven days with either TNBS (in 50% ethanol) or 50% ethanol alone as a control. Disease activity of all mice was monitored daily.
(§1) For CD-like mouse model, BALB/c mice were used for the induction of DSS colitis. For CD-like mouse model, BALB/c mice were used for the induction of TNBS-colitis. C57/B6 or BALB/c mice, 6-8 weeks old, were pretreated (daily peritoneal injection) for one week with either nicotine (a non-specific ligand of nAChRα7; 6 mg/kg) or a nAChRα7-specific agonist (PNU; 8.3 mg/kg). Controls were mice without the pre-treatments (a total of >10 mice in each treatment group). The mice were then induced to develop either CD-like colitis with TNBS (600 μg) or UC-like colitis with DSS (2.5%).

DSS-induced colitis = assay type: in vivo, mice; conditions: for effect on UC-like colitis (overall statement): mouse IBD model, acute/chronic not specified
Protocol: (§2) In an acute model, mice were treated with or without nAChRα7 agonist drug for five days. DSS were then given for seven days. Clinical activity scores were assessed. In a chronic model, mice were given DSS for seven days followed by seven days water. These DSS-water cycles were repeated three more times continuously. […] At this point, nAChRα7 agonist was given in one set of mice and all mice were followed for eleven days. […] The arrow indicates the start (day 53) of nAChRα7 agonist treatment in the chronic model;
as §1

chronic DSS colitis = assay: Chronic UC-like DSS colitis, therapeutic treatment; assay type: in vivo, mice; conditions: four DSS-water cycles, treatment from day 53, followed eleven days
Protocol: as §2
Induction of chronic UC-like colitis was described in the legends of FIG. 6.

[1] = system: chronic TNBS-induced colitis; assay type: in vivo, mice
[2] = system: DSS-induced colitis of nAChRα7 deficient mice; conditions: mouse, in vivo
Protocol: (§3) Wild type (WT) nAChRα7 deficient (nAChRα7 knockout; α7KO) mice, both in C57B/6 background, were induced to develop colitis, either with DSS (A) or TNBS (B). […] N≧6 per group;
(§4) To exclude this possibility, nAChRα7 agonist and antagonist were tested on nAChRα7-knockout mice (nAChRα7-KO), in which development of chemically-induced colitis will not be affected by the agents if they are only specific to nAChRα7.

[3] = system: TNBS-induced colitis of nAChRα7 deficient mice; conditions: mouse, in vivo
Protocol: as §3, §4

[4] = system: mouse behavior (immobility); conditions: DSS-induced colitis mice, IP agonist
Protocol: Tests were carried out on mice forced to swim in a cylindrical container for six minutes. Mice were divided into four groups: (a) control; (b) mice receiving IP agonist; (c) mice induced with DSS; and (d) mice receiving IP agonist and induced with DSS (n=6 in each group). The total duration of immobility in a container with 13 cm of water at 25° C. was scored. Immobility was defined when the mouse stopped struggling and remained floating motionless in the water, making only those movements necessary to keep its head above water. Day 0 and Day 7 indicate the days of DSS treatment.
(§5) Other studies of these nAChRα7-specific drugs, including toxicity and pharmacokinetics, are being investigated.

[5] = system: Gpx1/2-double knockout (DKO) mice ileocolitis; assay: GPX 1/2 DKO colitis; assay type: in vivo; conditions: administered once signs of colitis were evident
Protocol: Clinical activity scores were assessed.
Once signs of colitis were immediately evident, both nAChRα7 agonists and nAChRα7 antagonists were administered to Gpx1/2-DKO mice.

[6] = at the dose used in the preclinical studies
Text: as §5

Ulcerative colitis (UC) = conditions: human, in vivo; cited from earlier work
[7] = system: Immortalized (EBV-transformed) B lymphocytes of patients with UC, CD, and unaffected controls
[8] = treatment of established chronic colitis

SMILES	effect on CD-like colitis (overall statement) (TNBS-induced colitis)	effect on UC-like colitis (overall statement) (DSS-induced colitis)	disease activity (DAI), acute DSS-colitis (DSS-induced colitis; mouse, in vivo)	disease activity (clinical activity score), chronic DSS colitis (chronic DSS colitis)	disease activity (DAI), acute TNBS-colitis (TNBS-induced colitis)	disease activity (DAI), chronic TNBS-colitis [1, 8]	therapeutic effect on DSS-induced colitis in nAChRα7KO mice [2]	therapeutic effect on TNBS-induced colitis in nAChRα7KO mice [3]	potency compared with nicotine in preventing DSS-induced UC-like colitis (DSS-induced colitis; mouse, in vivo)	immobility of DSS-mice in forced swim test [4]	colitis clinical activity score, GPX 1/2 DKO mice [5]	adverse effect on mice [6]	appearance of major organs (heart, kidney, liver, small and large intestines, spleen) [6]	clinical efficacy in UC (Ulcerative colitis (UC))	anti-inflammatory cytokine IL-10 production [7]	cytokine/chemokine changes, agent by itself [7]	production of proinflammatory cytokine/chemokine IL-8 and MIP-1 [7]	disease activity (DAI), chronic TNBS-colitis ([1]; mouse, in vivo)
COc1ccc(/C=C2\CCCN=C2c2cccnc2)c(OC)c1 [GTS-21, 3-(2,4-dimethoxybenzylidene) anabaseine]	worsened CD-like colitis	highly effective therapeutics for UC-like colitis	similarly effect of preventing development; also recorded: preventing DSS-induced colitis	effectively reverse the disease course	–	–	–	–	–	–	–	–	–	–	–	–	–	–
CCN1C[C@]2(COC(=O)c3ccccc3N3C(=O)C[C@H](C)C3=O)CC[C@H](OC)[C@@]34[C@@H]5C[C@H]6[C@H](OC)[C@@H]5[C@](O)(C[C@@H]6OC)[C@@](O)([C@@H](OC)[C@H]23)[C@@H]14 [MLA, methyllycaconitine]	highly effective therapeutic agent for CD-like colitis	has no effect on UC-like colitis	–	–	efficiently prevent; also recorded: preventing acute TNBS-colitis; also recorded: essentially disappeared; also recorded: effectively prevent	highly therapeutic effect; also recorded: effectively reverses the disease course	–	–	–	–	–	–	–	–	–	–	–	–
O=C(N[C@H]1CN2CCC1CC2)c1ccc(Cl)cc1 [PNU, N-[(3R)-1-azabicyclo[2.2.2]oct-3-yl]-4-chlorobenzamide]	worsened CD-like colitis	highly effective therapeutics for UC-like colitis	prevents DSS-induced UC-like colitis; also recorded: preventing DSS-induced colitis; also recorded: essentially eliminated the inflammation; also recorded: effectively prevent	effectively reverse the disease course; also recorded: essentially eliminated the inflammation	greatly worsens; also recorded: worsens the disease; also recorded: either no therapeutic benefit, even worsening disease activity	no significant effect	neither agonist (PNU) nor antagonist (MLA) was efficacious; also recorded: no effect at all	neither agonist (PNU) nor antagonist (MLA) was efficacious; also recorded: no effect at all	slightly more potent	completely reversed the immobility	highly effective in treating colitis	no adverse effect	look normal by appearance	–	–	–	–	–
CN1CCCC1c1cccnc1 (stereo not drawn) [nicotine]	–	–	prevents the development; also recorded: prevents DSS-induced UC-like colitis; also recorded: effective in preventing UC-like DSS-colitis	–	–	–	–	–	–	–	–	–	–	significant clinical efficacy	significant inhibition	insignificant cytokine/chemokine changes	significant production	no significant effect
